According to US6605602B1, “Method of treating BK virus nephropathy” (University of Pittsburgh-of the Commonwealth System of …, priority 2001, dated 2003):

Assays:
[1] = system: polyoma viral DNA replication; details: in vitro studies; cited from earlier work
[2] = contraindicated in patients with impaired renal function; cited from earlier work
[3] = within 24 hours of administration; usual dosage 5 mg/kg; cited from earlier work
BK virus (BKV) = experiment: Cidofovir treatment of renal transplant recipients with BKV nephropathy; BKV viral load by TaqMan QPCR; type: in vivo, human
Protocol: Nucleic acid was extracted from urine and plasma specimens (150 μl of urine or plasma per specimen) using the Qui Amp Viral RNA Minikit, commercially available from Qiagen, Inc. The extraction procedure was performed according to the manufacturer's instructions provided with the kit.
A BKV gene sequence from the VP-1 region was amplified by the real-time TaqMan QPCR assay using the following primers and probe. The forward BKVN primer had the sequence 5′-[…]-3′ (SEQ ID NO. 1) and a Tm of 59° C. The reverse BKVN primer had the sequence 5′-[…]-3′ (SEQ ID NO. 2) and a Tm of 59° C. The TaqMan probe had the sequence 5′-[…]-3′ (SEQ ID NO. 4) and a Tm of 68° C. The TaqMan probe was labeled at the 5′ end with a FAM dye and at the 3′ end with a TAMRA dye. […]
In order to generate a positive control, a BKV gene sequence from the VP-1 region encompassing the TaqMan primer amplicon was cloned in a vector using the pGEM-T PCR cloning system (Promega, Madison, Wis.). The above sequence was then quantitated using UV spectrophotometry in order to calculate the copy number for a master standard positive control. A 10× serial dilution of standard positive control, with copies ranging from 10^7 to 10^10 was made and used to generate a standard curve with each quantitative assay. […] The urinary viral load was expressed as BKV copies/μl of urine. The plasma viral load was expressed as BKV copies/μl. […]

[4] = Serum creatinine of cidofovir-treated BKVN renal transplant patients; type: in vivo, human; set-up: Current Creatinine: unit: mg/dl
Protocol: Four patients were treated with cidofovir at a dosage level of […], 2-3 times weekly. This is […] of the recommended dose of 5 mg/kg. In addition, cidofovir was administered without probenecid.
Subsequently, the serum creatinine progressively rose to 8 mg/dl. At this point, a combination of IV IgG, high dose steroids and a single dose of cidofovir (1 mg/kg IV without probenecid) was administered.

JC virus = details: patients, infection caused by JC virus; cited from earlier work

Row | Structure (SMILES) | inhibition of polyoma viral DNA replication [1] | nephrotoxicity [2] | dose excreted in the urine unchanged [3] | BKV in urine and blood samples by QPCR (BK virus (BKV); case report Patient #1, two months after single dose 1 mg/kg IV without probenecid, combined with IV IgG and high dose steroids) | clearance of BKV viruria, number of doses needed (BK virus (BKV); four BKVN patients, 0.25 to 1.0 mg/kg, 2-3 times weekly, without probenecid) | Current Creatinine ([4]; Patient 1, Post Urethral valve, 3 doses (20-20-40 mg)) | Current Creatinine ([4]; Patient 2, Diabetic Nephropathy, 3 doses (70-35-15 mg)) | Current Creatinine ([4]; Patient 3, Renal Dysplasia, 1 dose (20 mg)) | Current Creatinine ([4]; Patient 4, IgA Nephropathy, 4 doses (200-200-200-70 mg)) | serum creatinine after treatment ([4]; case report Patient #1, after resuming full immunosuppression, had risen to 8 mg/dl before treatment) | effect in progressive multifocal leukoencephalopathy (JC virus)
1 | Nc1ccn(C[C@@H](CO)OCP(=O)(O)O)c(=O)n1 [cidofovir, (S)-1-(3-hydroxy-2-phosphonylmethoxypropyl) cytosine] | inhibit polyoma viral DNA replication | nephrotoxic | 75-80% | Neither sample was amplifiable for BKV | 2-4 doses | 1.8 | 3.2 | 1.7 | 3 | 1.7 to 1.9 mg/dL | reportedly effective
2 | Nc1ccn([C@@H]2O[C@H](CO)[C@@H](O)[C@@H]2O)c(=O)n1 [cytosine arabinoside] | inhibit polyoma viral DNA replication |  |  |  |  |  |  |  |  |  | 
